Test results as given in ChEMBL document CHEMBL5725787, “Fused pyrimidine compound or salt thereof” (2017).

Molecular target: Tyrosine-protein kinase BTK (Homo sapiens, UniProt Q06187)
Test: BTK Inhibitory Activity: With regard to the setting of the conditions for a method for measuring the inhibitory activity of a compound against BTK kinase activity in vitro, it is described in the consumable reagent supplies price list for LabChip (registered trademark) series of PerkinElmer, Inc. that FL-PEPTIDE 2 corresponds to a substrate peptide for the measurement of BTK kinase activity. Therefore, FL-PEPTIDE 2 was used as a substrate. The purified recombinant human BTK protein used in the test was purchased from Carna Biosciences, Inc.With regard to the measurement of the inhibitory activity of the compounds, firstly, the compounds of the present invention were diluted stepwise with dimethyl sulfoxide (DMSO). Subsequently, BTK protein, a substrate peptide (final concentration was 1 μM), magnesium chloride (final concentration was 10 mM), ATP (final concentration was 45 μM), and a DMSO solution of the compounds of the present invention (final concentration of DMSO was 5%) were added to a buffer solution for kinase reaction (20 mM HEPES (pH 7.5), 2 mM dithiotheitol, 0.01% Triton X-100), and after the solution was incubated for 40 minutes at 25° C., a kinase reaction was carried out. The reaction was terminated by adding EDTA thereto in order to obtain a final concentration of 30 mM. […]

Sequence of Tyrosine-protein kinase BTK (Q06187 whole entry): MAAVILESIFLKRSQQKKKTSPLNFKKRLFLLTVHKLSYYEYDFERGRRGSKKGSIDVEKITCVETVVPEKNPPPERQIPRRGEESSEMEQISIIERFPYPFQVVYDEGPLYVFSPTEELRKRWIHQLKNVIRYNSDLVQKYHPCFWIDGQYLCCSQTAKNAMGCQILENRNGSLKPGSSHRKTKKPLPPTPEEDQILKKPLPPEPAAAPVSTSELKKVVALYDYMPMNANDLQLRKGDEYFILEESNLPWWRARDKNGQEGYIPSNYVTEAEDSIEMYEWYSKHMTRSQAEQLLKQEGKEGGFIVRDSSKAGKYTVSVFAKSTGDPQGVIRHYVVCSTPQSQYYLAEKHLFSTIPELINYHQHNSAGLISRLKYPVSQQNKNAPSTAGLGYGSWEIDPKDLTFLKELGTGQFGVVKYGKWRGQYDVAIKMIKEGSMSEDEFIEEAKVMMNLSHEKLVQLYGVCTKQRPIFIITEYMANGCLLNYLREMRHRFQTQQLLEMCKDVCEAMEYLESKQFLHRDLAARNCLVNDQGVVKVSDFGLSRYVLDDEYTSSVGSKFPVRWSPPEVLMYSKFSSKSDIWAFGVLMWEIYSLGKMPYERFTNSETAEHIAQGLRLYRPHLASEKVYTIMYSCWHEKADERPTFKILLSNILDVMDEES

Structure (SMILES): C=CC(=O)N1CC[C@@H](n2nc(C(=O)Nc3nc4cc(-c5ccccc5)ccc4o3)c3c(N)ncnc32)C1
- IC50: 0.442 nM
